From patent publication US20260265238A1, “COMPOUNDS AND PHARMACEUTICAL COMPOSITIONS THAT DEGRADE SWI/SNF-RELATED MATRIX-ASSOCIATED ACTIN-DEPENDENT REGULATOR OF CHROMATIN SUBFAMILY A” (Plexium, Inc., priority 2023, published 2026)

Assays:
[1] = biological target: T1, SMARCA2-HiBiT HeLa cells (protein which is expressed from the SMARCA2 gene) (Homo sapiens, UniProt P51531); test: SMARCA2 degradation assay (HiBiT-fusion HeLa cell line, 24 h, luminescence); type: cell-based
T1 construct: protein which is expressed from the SMARCA2 and SMARCA4 genes; host or cells: HeLa (SMARCA2-HiBiT engineered line)
In short: (§1)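 SMARCA2- or SMARCA4-HiBiT HeLa cells seeded overnight at 37° C, then given compound as a 10-point dilution (typically 10 μM to 300 pM) for 24 h at 37° C. Protein level read by HiBiT lytic detection luminescence; DC50 from dose-response curves; degradation also scored at 1 μM.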

[2] = biological target: T2, SMARCA4-HiBiT HeLa cells (protein which is expressed from the SMARCA4 gene) (Homo sapiens, UniProt P51532); test: SMARCA4 degradation assay (HiBiT-fusion HeLa cell line, 24 h, luminescence); type: cell-based
T2 construct: protein which is expressed from the SMARCA2 and SMARCA4 genes; host or cells: HeLa (SMARCA4-HiBiT engineered line)
In short: as §1

T2 sequence (P51532 whole entry, the tested form may be a part): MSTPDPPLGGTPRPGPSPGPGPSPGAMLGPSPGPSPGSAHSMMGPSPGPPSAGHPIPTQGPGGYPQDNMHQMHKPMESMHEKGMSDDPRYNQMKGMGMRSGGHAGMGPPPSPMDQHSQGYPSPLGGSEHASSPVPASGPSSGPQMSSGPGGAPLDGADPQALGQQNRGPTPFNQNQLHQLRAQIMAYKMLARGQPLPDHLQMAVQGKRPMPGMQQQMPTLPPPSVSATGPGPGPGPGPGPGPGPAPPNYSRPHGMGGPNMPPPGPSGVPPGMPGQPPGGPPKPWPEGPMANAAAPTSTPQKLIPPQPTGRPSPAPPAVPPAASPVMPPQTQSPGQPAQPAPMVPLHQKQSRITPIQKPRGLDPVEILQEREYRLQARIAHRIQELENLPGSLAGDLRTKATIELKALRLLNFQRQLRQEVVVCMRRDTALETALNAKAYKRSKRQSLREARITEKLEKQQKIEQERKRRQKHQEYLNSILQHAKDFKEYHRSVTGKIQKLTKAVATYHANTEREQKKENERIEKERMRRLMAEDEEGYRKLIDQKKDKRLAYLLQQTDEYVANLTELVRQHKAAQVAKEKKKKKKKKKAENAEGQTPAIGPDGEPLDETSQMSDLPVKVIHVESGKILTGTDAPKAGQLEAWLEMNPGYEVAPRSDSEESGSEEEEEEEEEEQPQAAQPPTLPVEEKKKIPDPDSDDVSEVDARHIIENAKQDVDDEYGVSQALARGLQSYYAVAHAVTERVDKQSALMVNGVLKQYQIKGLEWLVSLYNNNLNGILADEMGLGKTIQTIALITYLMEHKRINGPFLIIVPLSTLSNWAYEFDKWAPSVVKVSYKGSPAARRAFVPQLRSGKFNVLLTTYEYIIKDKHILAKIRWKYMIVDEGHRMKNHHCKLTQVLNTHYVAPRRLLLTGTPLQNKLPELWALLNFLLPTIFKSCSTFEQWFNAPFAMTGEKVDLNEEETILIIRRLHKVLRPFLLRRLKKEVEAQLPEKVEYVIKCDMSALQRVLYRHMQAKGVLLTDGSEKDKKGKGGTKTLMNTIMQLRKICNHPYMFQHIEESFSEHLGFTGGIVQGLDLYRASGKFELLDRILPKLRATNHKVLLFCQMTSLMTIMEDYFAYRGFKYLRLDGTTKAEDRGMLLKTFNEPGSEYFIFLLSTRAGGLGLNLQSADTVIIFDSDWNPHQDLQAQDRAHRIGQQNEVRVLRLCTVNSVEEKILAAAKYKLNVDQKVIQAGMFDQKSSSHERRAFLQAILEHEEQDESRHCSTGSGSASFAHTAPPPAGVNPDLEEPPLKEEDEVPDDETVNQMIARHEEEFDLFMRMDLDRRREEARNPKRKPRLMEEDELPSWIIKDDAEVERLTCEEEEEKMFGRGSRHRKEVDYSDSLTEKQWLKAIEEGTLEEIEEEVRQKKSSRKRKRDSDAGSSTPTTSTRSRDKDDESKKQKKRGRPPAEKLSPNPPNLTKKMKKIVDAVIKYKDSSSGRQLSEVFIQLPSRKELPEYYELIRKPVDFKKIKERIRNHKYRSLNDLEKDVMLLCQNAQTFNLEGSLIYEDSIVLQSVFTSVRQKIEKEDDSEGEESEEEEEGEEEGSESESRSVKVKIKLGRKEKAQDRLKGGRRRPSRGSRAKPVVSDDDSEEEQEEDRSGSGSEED
T1 sequence (P51531 whole entry, the tested form may be a part): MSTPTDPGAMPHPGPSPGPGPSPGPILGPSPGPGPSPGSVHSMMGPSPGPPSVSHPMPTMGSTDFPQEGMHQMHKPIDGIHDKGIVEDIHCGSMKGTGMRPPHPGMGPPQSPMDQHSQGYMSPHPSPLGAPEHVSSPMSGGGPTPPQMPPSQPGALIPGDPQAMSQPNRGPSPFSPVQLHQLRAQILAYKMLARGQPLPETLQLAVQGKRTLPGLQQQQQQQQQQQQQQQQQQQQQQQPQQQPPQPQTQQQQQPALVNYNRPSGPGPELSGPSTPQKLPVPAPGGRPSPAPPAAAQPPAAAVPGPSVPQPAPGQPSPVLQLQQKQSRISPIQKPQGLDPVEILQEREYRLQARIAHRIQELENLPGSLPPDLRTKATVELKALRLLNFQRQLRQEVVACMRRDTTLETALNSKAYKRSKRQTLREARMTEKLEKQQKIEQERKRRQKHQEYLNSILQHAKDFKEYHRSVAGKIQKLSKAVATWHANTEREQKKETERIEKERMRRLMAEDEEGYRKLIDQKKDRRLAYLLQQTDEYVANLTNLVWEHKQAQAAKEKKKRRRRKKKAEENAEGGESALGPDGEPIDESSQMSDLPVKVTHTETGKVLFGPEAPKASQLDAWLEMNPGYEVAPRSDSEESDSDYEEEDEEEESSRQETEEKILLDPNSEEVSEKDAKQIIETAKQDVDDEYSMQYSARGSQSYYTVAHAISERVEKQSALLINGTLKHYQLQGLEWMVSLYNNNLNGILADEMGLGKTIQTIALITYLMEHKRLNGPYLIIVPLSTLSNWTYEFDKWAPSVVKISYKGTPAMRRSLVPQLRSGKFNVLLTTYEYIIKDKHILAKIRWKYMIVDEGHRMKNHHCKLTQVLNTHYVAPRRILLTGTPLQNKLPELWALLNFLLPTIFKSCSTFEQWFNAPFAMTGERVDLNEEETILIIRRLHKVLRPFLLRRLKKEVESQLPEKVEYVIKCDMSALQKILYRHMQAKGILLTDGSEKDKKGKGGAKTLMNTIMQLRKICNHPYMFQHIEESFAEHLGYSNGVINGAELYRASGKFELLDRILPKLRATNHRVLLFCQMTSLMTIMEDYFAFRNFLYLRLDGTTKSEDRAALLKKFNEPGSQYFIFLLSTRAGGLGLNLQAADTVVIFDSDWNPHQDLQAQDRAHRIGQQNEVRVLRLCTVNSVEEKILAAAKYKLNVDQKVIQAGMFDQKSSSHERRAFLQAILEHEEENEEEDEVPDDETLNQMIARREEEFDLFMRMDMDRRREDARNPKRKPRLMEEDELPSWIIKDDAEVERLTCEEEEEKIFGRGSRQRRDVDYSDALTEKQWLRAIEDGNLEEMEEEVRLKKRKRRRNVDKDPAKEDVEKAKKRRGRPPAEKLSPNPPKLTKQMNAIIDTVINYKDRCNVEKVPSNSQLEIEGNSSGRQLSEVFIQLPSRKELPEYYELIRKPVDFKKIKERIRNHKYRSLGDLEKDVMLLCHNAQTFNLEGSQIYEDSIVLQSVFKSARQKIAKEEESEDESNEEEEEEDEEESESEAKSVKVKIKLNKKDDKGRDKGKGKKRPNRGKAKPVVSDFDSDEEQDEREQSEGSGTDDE

SMILES: N#CC1CCN(CC#Cc2nccc(N3CCCN(c4cc(-c5ccccc5O)nnc4N)CC3)n2)CC1 [Compound P-357, 1-[3-(4-{4-[3-amino-6-(o-hydroxyphenyl)-4-pyridazinyl]-1,4-diazepan-1-yl}-2-pyrimidinyl)-2-propynyl]-4-piperidinecarbonitrile]
- DC50 [1]: 50 to 500 nM
- SMARCA2 % Degradation @ 1 μM [1]: ++ (++=30-70%)
- DC50 [2]: 500 to 5000 nM
- inhibition at 1 µM [2]: 30 to 70%

SMILES: C[C@H]1CN(c2ccnc(C#CCn3cncn3)n2)CCN1c1cc(-c2ccccc2O)nnc1N [Compound P-330, 0-{5-[(S)-2-methyl-4-{2-[3-(1H-1,2,4-triazol-1-yl)-1-propynyl]-4-pyrimidinyl}-1-piperazinyl]-6-amino-3-pyridazinyl} phenol]
- DC50 [1]: 50 to 500 nM
- SMARCA2 % Degradation @ 1 μM [1]: ++ (++=30-70%)
- DC50 [2]: 50 to 500 nM
- inhibition at 1 µM [2]: < 30%

SMILES: CC(C)(C)OC(=O)NCC#Cc1nccc(N2C3CCC2CN(c2cc(-c4ccccc4O)nnc2N)CC3)n1 (stereo not drawn) [Compound P-303, 4-(9-{2-[3-(tert-butoxycarbonylamino)-1-propynyl]-4-pyrimidinyl}-3,9-diazabicyclo[4.2.1]non-3-yl)-6-(o-hydroxyphenyl)-3-pyridazinamine]
- DC50 [1]: < 50 nM
- SMARCA2 % Degradation @ 1 μM [1]: ++ (++=30-70%)
- DC50 [2]: < 50 nM
- inhibition at 1 µM [2]: 30 to 70%

SMILES: Nc1nnc(-c2ccccc2O)cc1N1C2CCC1CN(c1ccnc(C#CCN3CC4CC3C4)n1)C2 [Compound P-182, o-{6-amino-5-[3-(2-{3-(2-azabicyclo[2.1.1]hex-2-yl)-1-propynyl}-4-pyrimidinyl)-3,8-diazabicyclo[3.2.1]oct-8-yl]-3-pyridazinyl}phenol]
- DC50 [1]: 50 to 500 nM
- SMARCA2 % Degradation @ 1 μM [1]: ++ (++=30-70%)
- DC50 [2]: 50 to 500 nM
- inhibition at 1 µM [2]: 30 to 70%

SMILES: Nc1nnc(-c2ccccc2O)cc1OC1CC2CN(c3ccnc(C#CCn4ccnc4)n3)CC2C1 (stereo not drawn) [Compound P-219, o-[6-amino-5-(3-{2-[3-(1-imidazolyl)-1-propynyl]-4-pyrimidinyl}-3-azabicyclo[3.3.0]oct-7-yloxy)-3-pyridazinyl]phenol]
- DC50 [1]: 50 to 500 nM
- SMARCA2 % Degradation @ 1 μM [1]: +++ (+++=>70%)
- DC50 [2]: 50 to 500 nM
- inhibition at 1 µM [2]: > 70%

SMILES: CN(C)CC#Cc1nccc(N2C3CCC2CN(c2cc(-c4ccccc4O)nnc2N)C3)n1 [Compound P-134, 2-(6-amino-5-(8-(2-(3-(dimethylamino)prop-1-yn-1-yl)pyrimidin-4-yl)-3,8-diazabicyclo[3.2.1]octan-3-yl)pyridazin-3-yl)phenol]
- DC50 [1]: 50 to 500 nM
- SMARCA2 % Degradation @ 1 μM [1]: ++ (++=30-70%)
- DC50 [2]: < 50 nM
- inhibition at 1 µM [2]: 30 to 70%

SMILES: C[C@@H]1CCN(c2cc(-c3ccccc3O)nnc2N)CCN1c1nc(C#CCO)ncc1F [Compound P-207, o-(5-{(R)-4-[5-fluoro-2-(3-hydroxy-1-propynyl)-4-pyrimidinyl]-5-methyl-1,4-diazepan-1-yl}-6-amino-3-pyridazinyl)phenol]
- DC50 [1]: 500 to 5000 nM
- SMARCA2 % Degradation @ 1 μM [1]: ++ (++=30-70%)
- DC50 [2]: 500 to 5000 nM
- inhibition at 1 µM [2]: < 30%

SMILES: Nc1nnc(-c2ccccc2O)cc1N1C[C@H]2CN(c3ccnc(C#CCN4CC(F)(F)C4)n3)C[C@H]2C1 [Compound P-180]
- DC50 [1]: < 50 nM
- SMARCA2 % Degradation @ 1 μM [1]: ++ (++=30-70%)
- DC50 [2]: < 50 nM
- inhibition at 1 µM [2]: 30 to 70%

SMILES: CCC1CN(c2ccnc(C#CCNC(=O)c3cc4ncccn4n3)n2)CCN1c1cc(-c2ccccc2O)nnc1N (stereo not drawn) [Compound P-51, N-(3-(4-(4-(3-amino-6-(2-hydroxyphenyl)pyridazin-4-yl)-3-ethylpiperazin-1-yl)pyrimidin-2-yl)prop-2-yn-1-yl)pyrazolo[1,5-a]pyrimidine-2-carboxamide]
- DC50 [1]: 50 to 500 nM
- SMARCA2 % Degradation @ 1 μM [1]: ++ (++=30-70%)
- DC50 [2]: 50 to 500 nM
- inhibition at 1 µM [2]: 30 to 70%
